Data reported in patent US20250262139A1, “POLYPEPTIDES AND METHODS FOR IMPROVING SKIN CONDITIONS” (INTERK PEPTIDE THERAPEUTICS LIMITED, priority 2020, published 2025).
Where no end group is shown, it is not given here.

Tested on: human skin explants
Assay: CPD formation in UV-irradiated human skin explants
Format: cell-based
Procedure: Human skin removed at elective surgery was cleaned, dissected and cut into pieces of approx. 5 mm×5 mm. Each piece was placed in a well of a 96 well plate, with individual plates prepared to assess the effects 3 hrs post treatment. All samples were performed in triplicate for each treatment. Skin was subjected to UV-radiation from solar-simulated UV source for 1.5 h (UVR), or non-irradiation (SHAM). Given that human skin is thicker than mouse skin, human skin explants were exposed to a radiation dose three times higher than that used for mouse skin, i.e., 20 J/cm2 versus 7 J/cm^2, respectively, and the output spectrum of the laboratory solar simulator has previously been reported (Rybchyn M S et al, J Invest Dermatol. 2018 May; 138 (5): 1146-1156) and treated immediately after with a vehicle control, Calcitriol (1 nM) or the polypeptide IK34720 (SEQ ID NO: 3) at concentrations of 50 μM, 250 μM or 500 μM.
Samples harvested at 3 hrs were fixed, section, stained and quantified as described in Example 5.

Sequence: RSKAKNPLYRRRRRRRRR (not fully specified (some residues)) [IK34720]
- percentage of CPD positive cells (500 μM, 3 hrs post irradiation, two individuals): statistically significantly reduced
- cells stained for CPDs (3 hrs post irradiation/treatment, Calcitriol 1 nM, IK34720 50, 250 or 500 μM): fewer stained cells
